In publication PMC10214526, “Semisynthetic LC3 Probes for Autophagy Pathways Reveal a Noncanonical LC3 Interacting Region Motif Crucial for the Enzymatic Activity of Human ATG3” (ACS Central Science, 2023):

Test system: ATG3
Assay: Reaction (cross-linking) of Ubl activity-based probes with recombinant ATG3 and variants
Format: biochemical, human
Conditions: probe 15 μM, SDS-PAGE
Description: Figure 1 Modification of ATG3 with GABARAP ABPs depends on LIR^ATG3. a. Characterization of GABARAP activity-based probes, 1 and 2, obtained by hydrazide-acylation. Deconvoluted mass-spectrum (ESI) of GABARAP(ΔG116)–NHNH α-chloroacetyl 1. Expected mass 13707 Da. Deconvoluted mass-spectrum (ESI) of GABARAP(ΔG116)–NHNH methyl-fumarate 2. Expected mass 13743 Da. b. […] The reaction was allowed to proceed for 1 h and was analyzed by SDS-PAGE and Coomassie Blue staining. c. ColabFold-predicted structure of the protein-complex of ATG3 and GABARAP. Side-chain atoms are shown for the predicted LIR motif in ATG3 (90–112). d. Reaction of 2 (15 μM) with ATG3 variants C1, C0, and ΔLIR (15 μM). ATG3 C1 contains only active-site cysteine C264. ATG3 C0 contains no cysteines. ATG3 ΔLIR lacks amino acids 95–111. Reaction was allowed to proceed for 1 h and was analyzed by SDS-PAGE and Coomassie Blue staining. Full-gel images for b and d are available in the Supplementary Information.
We were intrigued by the cross-linking efficiency of 2 with ATG3 and sought to investigate the origin of this efficiency by generating a C1 variant of ATG3 that only contains the catalytic cysteine 264 and a corresponding C0 variant containing no cysteines. […] In general, the affinity of E2s for their cognate Ubls are quite low, as the thioester transfer from the E1 to the E2 enzyme is facilitated by additional interactions from the UFD domain of the E1 enzyme.[23] […]
Upon completion the solution was dialyzed against 25 mM
HEPES, 200 mM NaCl pH 7.2 at 4 °C. Cleaved intein was removed using gravity Ni-NTA purification.
The flow-through was collected and combined with resin washes. The combined fractions were dialyzed and further purified using ion exchange.
3.3. Generation of GABARAP and LC3A hydrazides from SUMO-GABARAP/LC3A-Mxe GyrA-
SUMO-GABARAP/LC3A-Mxe GyrA-His6 fusion after Ni-NTA purification was dialyzed against intein cleavage buffer (25 mM HEPES, 500 mM NaCl, 1 mM EDTA pH 7.2 at 4 °C). After dialysis hydrazine monohydrate (75 mM) and MESNa (10 mM) was added and the pH adjusted to 7.8. The solution was allowed to stand at room temperature and monitored using LC-MS analysis. Upon completion the solution was dialyzed against 25 mM HEPES, 500 mM NaCl pH 7.2 at 4 °C. SENP1 (1 wt%) was added to cleave the SUMO-tag. The cleaved intein was removed using gravity Ni-NTA purification. […]
dialyzed and further purified using cation exchange using a buffer 25 mM Tris pH 8.0 and a gradient of […] in the same buffer over 25 column volumes. The product fractions were pooled, concentrated, and stored at –80 °C until further use.
3.4. Synthesis of symmetrical anhydrides
The carboxylic acid was dissolved in CH2Cl2 (300 mM) and dicyclohexylcarbodiimide (0.5 eqiv) was added in one portion. The reaction was stirred under N2 for 18 h. The suspension was filtered and concentrated to ~10% of the initial volume. The solution was placed at 4 °C for 1 h and filtered again.
The filtrate was concentrated to obtain the symmetrical anhydride which was used without further purification. Anhydrides can be stored at –20 °C for weeks.
3.5. Reaction of modified Ubl probes with E2s
Ubl probes (15 μM) were mixed with E2s (15 μM) in PBS. The mixture was incubated at 37 °C in a water bath for 0.5-3 h. The reaction was quenched by addition of 2x Laemmli buffer and boiled at 95 °C for 5 min. Samples were resolved by SDS-PAGE (8-16%, Bio-Rad) and visualized by […]
Coomassie staining. […]

GABARAP(ΔG116)–NHNH methyl-fumarate [compound 2]
Reaction with ATG3 wt (ATG3 15 μM, 1 h, Coomassie Blue): reacted with ATG3 efficiently leading to the formation of multiple ATG3–GABARAP bands | Reaction with ATG3 C0 (ATG3 C0 (no cysteines) 15 μM): no reaction was observed | Reaction with ATG3 C1 (ATG3 C1 (only active-site C264) 15 μM): excellent reactivity | Reaction with ATG3 ΔLIR (ATG3 C1 ΔLIR (Δ95–111) 15 μM): no complex formation | Reaction with ATG3 C264A (catalytically inactive ATG3 C264A 15 μM): loss of one ATG3–GABARAP band but did not abrogate additional bands for the complex
